Laboratory results: the supplement of paper PMC10307832

What was measured:
Experiment in all cases: relative viability (nuclei count vs DMSO), 5 days (fraction); higher = more cells survive
AZ3146 + Navitoclax = compound: CN1CCC(CC1)OC2=CC(=C(C=C2)NC3=NC=C4C(=N3)N(C(=O)N4C)C5CCCC5)OC [AZ3146] + CC1(C)CCC(c2ccc(Cl)cc2)=C(CN2CCN(c3ccc(C(=O)NS(=O)(=O)c4ccc(N[C@H](CCN5CCOCC5)CSc5ccccc5)c(S(=O)(=O)C(F)(F)F)c4)cc3)CC2)C1 [Navitoclax] (partner 0.5 µM)
In short: (§1)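 Medians of duplicate plates are given as relative viability. That measure is the nuclei count in treated wells divided by the count in vehicle wells. Counts were taken on 4× images of lung cancer cell lines in 1536-well plates, 5 days after pin-tool dosing the day after seeding with one drug alone or a fixed anchor-drug dose plus five library-drug doses (not always all listed) in √10 steps.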

GSK-J4 + Trametinib = compound: CCOC(=O)CCNc1cc(N2CCc3ccccc3CC2)nc(-c2ccccn2)n1 [GSK-J4] + CC(=O)Nc1cccc(-n2c(=O)n(C3CC3)c(=O)c3c(Nc4ccc(I)cc4F)n(C)c(=O)c(C)c32)c1 [Trametinib] (partner 0.02 µM)
In short: as §1

AZ3146 = compound: CN1CCC(CC1)OC2=CC(=C(C=C2)NC3=NC=C4C(=N3)N(C(=O)N4C)C5CCCC5)OC [AZ3146]
In short: (§2)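 For viability, nuclei in each treated well were divided by nuclei in vehicle wells and the median across plates was taken. Lung cancer cell lines in 1536-well plates were pinned with five library-drug doses (not always all listed) spaced by √10, cultured 5 days without medium change, and imaged at 4× after Hoechst staining, with plates passing only at control CV below 25% and at least one doubling.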

GSK-J4 = compound: CCOC(=O)CCNc1cc(N2CCc3ccccc3CC2)nc(-c2ccccn2)n1 [GSK-J4]
In short: as §2

Cell Line	relative viability (AZ3146 + Navitoclax; first compound 0.253 µM)	relative viability (AZ3146 + Navitoclax; first compound 0.8 µM)	relative viability (AZ3146 + Navitoclax; first compound 2.53 µM)	relative viability (AZ3146 + Navitoclax; first compound 8 µM)	relative viability (GSK-J4 + Trametinib; first compound 0.5 µM)	relative viability (GSK-J4 + Trametinib; first compound 1.581 µM)	relative viability (GSK-J4 + Trametinib; first compound 5 µM)	relative viability (GSK-J4 + Trametinib; first compound 15.81 µM)	relative viability (GSK-J4 + Trametinib; first compound 50 µM)	relative viability (AZ3146; 0.253 µM)	relative viability (AZ3146; 0.8 µM)	relative viability (AZ3146; 2.53 µM)	relative viability (AZ3146; 8 µM)	relative viability (GSK-J4; 0.5 µM)	relative viability (GSK-J4; 1.581 µM)	relative viability (GSK-J4; 15.81 µM)	relative viability (GSK-J4; 50 µM)	relative viability (AZ3146 + Navitoclax; first compound 0.08 µM)	relative viability (AZ3146; 0.08 µM)	relative viability (GSK-J4; 5 µM)
BEN	0.0708	0.0628	0.0467	0.176	1.1	0.883	0.88	0.896	0.917	0.898	0.886	0.989	0.943	1.06	0.864	0.876	0.788	–	–	–
SW 1573	1.1	1.04	0.93	0.895	0.577	0.474	0.651	0.599	0.381	1.04	0.991	0.959	0.68	0.926	0.96	0.949	0.756	0.997	0.994	0.851
EPLC-272H	0.98	1.05	1.37	1.19	0.328	0.251	0.325	0.272	0.232	0.895	0.92	0.992	0.969	0.994	0.678	0.814	0.734	0.985	0.789	0.93
LK-2	0.889	0.994	0.911	0.929	0.655	0.727	1.27	0.664	1.04	0.782	0.961	1.08	1.05	1.07	0.886	0.756	1	0.686	0.743	1.22
NCI-H1299	1.02	1.06	1	1.01	–	–	–	–	–	0.995	0.996	1.02	0.992	0.982	0.952	0.998	1	1.02	0.987	0.877
Calu-6	0.952	0.763	0.665	0.278	–	–	–	–	–	1.03	0.948	0.948	0.799	0.979	0.945	0.983	1.01	0.781	0.964	0.941
ABC-1	–	–	–	–	–	–	–	–	–	0.901	1.02	1.02	0.867	1.04	0.869	0.797	0.403	–	0.892	0.803
NCI-H1563	–	–	–	–	–	–	–	–	–	0.973	1.04	0.902	0.909	0.952	1.1	0.894	0.985	–	0.837	0.892
EBC-1	0.464	0.426	0.412	0.229	–	–	–	–	–	0.938	0.884	0.979	0.602	0.817	0.892	0.961	0.668	0.499	0.915	0.96
NCI-H1648	–	–	–	–	0.467	–	0.643	–	0.429	0.654	0.924	0.921	1.03	0.992	–	0.496	0.807	–	–	1.47
NCI-H1703	0.91	0.993	0.708	0.283	–	–	–	–	–	0.901	0.789	0.806	0.55	0.936	0.903	0.781	0.804	1.06	0.979	0.815
NCI-H650	–	–	–	–	0.949	0.871	–	0.771	0.745	0.822	0.867	1.02	1.03	0.931	0.653	0.832	0.751	–	0.776	0.494
A549	1.29	1.23	0.467	0.0543	–	–	–	–	–	0.988	1.03	0.952	0.462	0.981	0.731	0.838	0.924	1.12	0.852	0.862
NCI-H522	–	–	–	–	0.817	0.6	–	0.75	0.7	0.943	0.926	0.899	0.938	1.06	0.746	0.75	0.559	–	0.917	0.789
NCI-H358	–	–	–	–	0.145	–	0.157	0.118	0.131	0.923	0.873	1.1	0.785	0.981	0.843	0.819	0.807	–	0.977	0.977
NCI-H1623	–	–	–	–	–	–	–	–	–	0.991	0.78	0.944	0.956	1.05	0.739	0.825	0.959	–	1.03	1.31
SW 900	–	–	–	–	0.548	0.691	0.877	0.785	0.83	0.669	0.751	1.01	0.686	0.803	0.794	0.863	0.64	–	0.77	0.842
LCLC-103H	–	–	–	–	0.68	0.64	0.674	0.622	0.626	0.949	0.974	0.995	0.965	1.07	0.883	0.954	0.94	–	0.974	0.908
